Experimental data as given in patent US12540173B2, “Methods of treating cancer by targeting ZSCAN4 activity in cancer stem cells” (University of Maryland, Baltimore, priority 2019, dated 2026).
Read-outs that look alike come from different tables or passages of the source.

Assays:
[1] = tested on: ZSCAN4 depleted Tu167 cells; details: increasing doses, ZSCAN4 depleted Tu167 cells compared to isogenic NTC shRNA cells, MTT
Description: FIG. 14. […] All data shown as mean±S.E.M. observed in triplicate in at least three independent experiments. Asterisks indicate: *p<0.05, **p<0.01, ***p<0.001.
Another hallmark of CSCs is multi-drug resistance, a major factor contributing to cancer recurrence. Therefore, we examined the role of ZSCAN4 in response to genotoxic drugs. To define the effect of ZSCAN4 on drug resistance, we measured cell viability after increasing doses of the DNA damaging drugs in ZSCAN4 depleted and control Tu167 cells.

[2] = tested on: tet-ZSCAN4 cells; test: Dox-regulated ZSCAN4 induction and clearance, immunoblot; format: cell-based, human
Experimental: FIG. 9. A, An illustration of the tet-ZSCAN4 expression vector. B, Image of tet-ZSCAN4 (Tu167) cells showing expression of GFP. C, Immunoblot analyses indicate ZSCAN4 is tightly regulated by Dox and localizes to the nucleus; Controls: LDH (cytosol), Lamin-B (nucleus). D, Doxycycline addition to the culture medium (Dox+) induces ZSCAN4 within 6 hours.
Immunoblot Assays. Cytosolic proteins were extracted by Cytoskeleton buffer (10 mM PIPES, 300 mM sucrose, 100 mM NaCl, 3 mM MgCl2, 1 mM EGTA and 0.5% Triton X100), and nucleoplasm fraction was isolated. Next, pellets were lysed in urea solution (8 M Urea in 0.01 Tris pH 8+0.1M NaH2PO4) and sonicated. Samples were electrophoresed in polyacrylamide gels. PVDF membranes were blocked with 5% nonfat milk or Superblock (Thermo Fisher Scientific) for 1 hour, then incubated overnight at 4° C. with the indicated primary antibodies in blocking solution (Table 2). Membranes were washed and incubated with secondary antibodies (1:5000) for 1 hour. Secondary antibodies were visualized by ECL Chemiluminescence (ThermoFisher Scientific). […]

[3] = tested on: OCT3/4, SOX2, KLF4 and NANOG; test: qPCR of pluripotent stem cell factors after ZSCAN4 knockdown; format: cell-based, human; details: vs NTC-shRNA
Experimental: RNA extraction and Quantitative Reverse Transcriptase Polymerase Chain Reaction (qRT-PCR). One microgram of total RNA, isolated with Trizol, was reverse transcribed by Superscript III (Invitrogen) following the manufacturer's protocol. For qPCR, 10 ng cDNA was used per well in triplicate using SYBR green reaction mix (Roche) following the manufacturer's instructions with corresponding primers (Table 1). Reactions were run on the LightCycler 480 system (Roche). Fold induction was calculated by the delta-delta Ct method.
ZSCAN4 shRNAs were tested (19-mer sense, a hairpin loop, and 19-mer anti-sense oligos): shRNA1 (SEQ ID NO:3): 5′-[…] G-3′, shRNA2 (SEQ ID NO:4): 5′-[…] TG-3, shRNA3 (SEQ ID NO:5): 5′-[…] T-3 and two were cloned into the HuSH shRNA Plasmid pRFP-C-RS (Origene). Vectors were stably transfected into Tu167 or 012SCC cells by Effectene (QIAGEN) according to the manufacturer's protocol. As controls, isogenic cell lines were also generated expressing a non-targeting control shRNA (NTC-shRNA) or an Empty vector (same vector without an shRNA cassette). Cell lines were selected with 1 μg/ml Puromycin (ThermoFisher Scientific). Knockdown was confirmed by immunostaining and by qPCR.
Next, we used two of the shRNA sequences (shRNA1 and shRNA2) to generate stable knockdown cell lines (in Tu167 and 012SCC cells). Isogenic cells for each cell line with NTC-shRNA, or empty vector were used as controls. […] Our results further indicate a decrease in the CSC markers BMI1 and EZH2 (FIG. 5C).

N.N.[Cl][Pt][Cl] [CPT, Cisplatin]
cell viability [1]: significantly decreased cell viability
cell viability ([1]; listed as Cisplatin): hypersensitivity

C[C@H]1c2cccc(O)c2C(=O)C2=C(O)[C@]3(O)C(=O)C(C(N)=O)=C(O)[C@@H](N(C)C)[C@@H]3[C@@H](O)[C@@H]21 [Dox, Doxycycline]
time until ZSCAN4 is detectable after addition of Dox to the medium [2]: ≤ 6 h

Bleomycin [BLM]
cell viability [1]: dramatically reduced cell viability
cell viability ([1]; listed as Bleomycin): hypersensitivity

shRNA1: ZSCAN4 shRNA, SEQ ID NO:3: 5′-GAGAACGGTCCTAGGCCTGTCAAGAGGAGAACGGTCCTAGGCCTG-3′
expression of OCT3/4, SOX2, KLF4 and NANOG ([3]; 012SCC stable knockdown cells): significant downregulation
expression of OCT3/4, SOX2, KLF4 and NANOG ([3]; 012SCC stable knockdown cells, listed as shRNA 1): decreased expression
expression of OCT3/4, SOX2, KLF4 and NANOG ([3]; Tu167 stable knockdown cells): significant downregulation
expression of OCT3/4, SOX2, KLF4 and NANOG ([3]; Tu167 stable knockdown cells, listed as shRNA 1): decreased expression

shRNA2: ZSCAN4 shRNA, SEQ ID NO:4: 5′-GATATCAGACCTACGGGTGTCAAGAGGATATCAGACCTACGGGTG-3′
expression of OCT3/4, SOX2, KLF4 and NANOG ([3]; 012SCC stable knockdown cells): significant downregulation
expression of OCT3/4, SOX2, KLF4 and NANOG ([3]; 012SCC stable knockdown cells, listed as shRNA 2): decreased expression
expression of OCT3/4, SOX2, KLF4 and NANOG ([3]; Tu167 stable knockdown cells): significant downregulation
expression of OCT3/4, SOX2, KLF4 and NANOG ([3]; Tu167 stable knockdown cells, listed as shRNA 2): decreased expression
